Measured values from US12544547B2, “Gelatin-based microneedle patch for minimally-invasive extraction of bodily fluids” (THE REGENTS OF THE UNIVERSITY OF CALIFORNIA, priority 2020, dated 2026).
Read-outs that look alike come from different tables or passages of the source.

Key:
[1] = design: species or system Wistar rats; settings: rat, in vivo
[2] = In vivo vancomycin detection in ISF versus plasma after intravenous vancomycin; design: species or system Wistar rats; settings: Wistar, rat, 1 mg/rat; for concentration at 5 min: 5 min after intravenous injection; for concentration at 30 min / concentration at 60 min: intravenous; for concentration at 30 min: 30 min following injection; for concentration at 60 min: 60 min after injection
Procedure: In vivo collection of ISF and glucose and vancomycin detection: All animal experiments were approved by the Animal Care and Use Committee of University of California, Los Angeles, and procedures for animals were performed in accordance with the relevant guidelines and regulations. Wistar rats (4-week-old, approximately 70-80 g) were anesthetized with 50 mg/kg sodium pentobarbital. The dorsal hair of each rat was shaved. After the initial mass of the GelMA patch 10 was weighed, it was applied to the dorsal skin of the rat using the thumb and index finger. Gauze was used to fix the patches 10 on the skin. ten minutes later, the patch 10 was removed and the final mass was recorded. To quantify the concentration of the delivered molecules, the wet patch 10 was transferred into a centrifuge tube with 200 μL of DI water. After centrifugation at 12000 rpm for 10 min, the solution in the tube was transferred to be tested. In addition, blood samples were also collected from the tail vein for glucose detection and the plasma was isolated via centrifugation for vancomycin detection. For histopathology, the skin was harvested and fixed in 10% neutral buffered formalin (BBC Biochemical, WA, USA), processed by a standard method, and embedded in paraffin. 4 μm in thickness tissue sections were stained with hematoxylin and eosin (H&E, BBC Biochemical) to confirm that GelMA microneedles 14 effectively penetrate the skin.
In the glucose detection experiment, the rats were intravenously injected with 1 mL of 0.2 g/mL glucose in saline. The glucose concentrations in ISF were tested using Glucose Assay Kit (Sigma) and the glucose levels in blood were tested using a glucometer (Clarity Diagnostics, US). In the vancomycin detection experiment, the rats were intravenously injected with 1 mL vancomycin at a concentration of 1 mg/mL in saline. The vancomycin concentration in ISF and plasma samples was also quantified by LC-MS/MS analysis (mentioned above).

[3] = interstitial fluid (ISF), read-out: vancomycin concentration in ISF
[4] = plasma, read-out: vancomycin concentration in plasma

Row | skin recovery time after removing the patch [1] [min] | Compound | concentration at 5 min [2, 3] [ng/mL] | concentration at 30 min [2, 3] [ng/mL] | concentration at 60 min [2, 3] [ng/mL] | concentration at 5 min [2, 4] [ng/mL] | concentration at 30 min [2, 4] [ng/mL] | concentration at 60 min [2, 4] [ng/mL]
1 | ≤ 20 | gelatin methacryloyl (GelMA) [GelMA microneedle patch] |  |  |  |  |  | 
2 |  | CN[C@H](CC(C)C)C(=O)N[C@H]1C(=O)N[C@@H](CC(N)=O)C(=O)N[C@H]2C(=O)N[C@H]3C(=O)N[C@H](C(=O)N[C@H](C(=O)O)c4cc(O)cc(O)c4-c4cc3ccc4O)[C@H](O)c3ccc(c(Cl)c3)Oc3cc2cc(c3O[C@@H]2O[C@H](CO)[C@@H](O)[C@H](O)[C@H]2O[C@H]2C[C@](C)(N)[C@H](O)[C@H](C)O2)Oc2ccc(cc2Cl)[C@H]1O [vancomycin] | 5930 ± 180 | ~6500 | ~4000 | 8270 ± 130 | ~6500 | ~4000
